Key:
Details in all cases: PDSP primary screen at 10 µM
M2 = target: T1, M2 (Homo sapiens, UniProt P08172); experiment: PDSP receptor binding, M2
T1 construct: purchased NIMH PDSP (Psychoactive Drug Screening Program, Roth lab, Case Western Reserve)

5ht3 = target: T2, 5ht3 (Homo sapiens, UniProt P46098); experiment: PDSP receptor binding, 5ht3
T2 construct: purchased NIMH PDSP (Psychoactive Drug Screening Program, Roth lab, Case Western Reserve)

H3 = target: T3, H3 (Homo sapiens, UniProt Q9Y5N1); experiment: PDSP receptor binding, H3
T3 construct: purchased NIMH PDSP (Psychoactive Drug Screening Program, Roth lab, Case Western Reserve)

DAT = target: T4, DAT (Homo sapiens, UniProt Q01959); experiment: PDSP receptor binding, DAT
T4 construct: purchased NIMH PDSP (Psychoactive Drug Screening Program, Roth lab, Case Western Reserve)
T4 sequence (Q01959 whole entry): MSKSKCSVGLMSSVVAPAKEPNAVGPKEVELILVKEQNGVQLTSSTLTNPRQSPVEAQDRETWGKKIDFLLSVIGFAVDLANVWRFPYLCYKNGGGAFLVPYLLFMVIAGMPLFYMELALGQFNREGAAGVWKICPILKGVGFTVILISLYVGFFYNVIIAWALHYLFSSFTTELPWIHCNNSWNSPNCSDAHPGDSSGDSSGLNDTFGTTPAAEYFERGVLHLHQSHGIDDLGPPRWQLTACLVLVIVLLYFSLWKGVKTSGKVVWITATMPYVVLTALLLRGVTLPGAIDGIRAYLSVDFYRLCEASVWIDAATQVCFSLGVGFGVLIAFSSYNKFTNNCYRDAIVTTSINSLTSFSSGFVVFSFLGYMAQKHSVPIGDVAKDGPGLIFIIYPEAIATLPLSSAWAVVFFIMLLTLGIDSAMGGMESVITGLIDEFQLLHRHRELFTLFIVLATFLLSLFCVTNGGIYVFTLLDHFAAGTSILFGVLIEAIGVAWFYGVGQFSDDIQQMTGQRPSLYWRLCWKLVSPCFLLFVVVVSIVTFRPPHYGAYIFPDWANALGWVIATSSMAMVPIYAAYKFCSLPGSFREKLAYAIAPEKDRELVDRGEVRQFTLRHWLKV

[1] = PDSP receptor binding, β1B
Beta1 = target: T5, Beta1 (Homo sapiens, UniProt P08588); experiment: PDSP receptor binding, Beta1
T5 construct: purchased NIMH PDSP (Psychoactive Drug Screening Program, Roth lab, Case Western Reserve)
T5 sequence (P08588 whole entry): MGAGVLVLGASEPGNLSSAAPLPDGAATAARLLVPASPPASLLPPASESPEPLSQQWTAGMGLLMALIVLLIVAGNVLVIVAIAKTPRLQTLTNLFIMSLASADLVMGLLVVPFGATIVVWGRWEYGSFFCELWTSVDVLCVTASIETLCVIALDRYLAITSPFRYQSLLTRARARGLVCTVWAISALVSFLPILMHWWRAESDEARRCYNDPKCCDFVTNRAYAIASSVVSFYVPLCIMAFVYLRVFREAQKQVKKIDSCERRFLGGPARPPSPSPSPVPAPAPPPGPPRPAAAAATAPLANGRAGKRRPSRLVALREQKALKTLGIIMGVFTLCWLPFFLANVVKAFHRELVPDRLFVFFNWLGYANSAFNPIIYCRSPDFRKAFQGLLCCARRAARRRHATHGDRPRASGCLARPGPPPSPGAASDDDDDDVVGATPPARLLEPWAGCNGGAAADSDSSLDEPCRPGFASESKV

D1 = target: T6, D1 (Homo sapiens, UniProt P21728); experiment: PDSP receptor binding, D1
T6 construct: purchased NIMH PDSP (Psychoactive Drug Screening Program, Roth lab, Case Western Reserve)
T6 sequence (P21728 whole entry): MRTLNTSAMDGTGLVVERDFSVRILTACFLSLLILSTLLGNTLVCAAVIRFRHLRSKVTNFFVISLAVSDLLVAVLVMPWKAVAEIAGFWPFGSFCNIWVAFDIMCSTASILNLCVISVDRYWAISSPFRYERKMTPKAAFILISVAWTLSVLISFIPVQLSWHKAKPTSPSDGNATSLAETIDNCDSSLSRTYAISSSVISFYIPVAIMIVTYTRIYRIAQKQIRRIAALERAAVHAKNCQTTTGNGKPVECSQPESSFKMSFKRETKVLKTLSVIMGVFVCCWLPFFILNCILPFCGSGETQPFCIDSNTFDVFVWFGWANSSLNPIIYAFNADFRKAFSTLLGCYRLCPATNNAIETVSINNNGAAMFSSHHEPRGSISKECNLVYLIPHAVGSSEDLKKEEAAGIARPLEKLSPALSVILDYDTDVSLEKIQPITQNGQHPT

5ht5a = target: T7, 5ht5a (Homo sapiens, UniProt P47898); experiment: PDSP receptor binding, 5ht5a
T7 construct: purchased NIMH PDSP (Psychoactive Drug Screening Program, Roth lab, Case Western Reserve)
T7 sequence (P47898 whole entry): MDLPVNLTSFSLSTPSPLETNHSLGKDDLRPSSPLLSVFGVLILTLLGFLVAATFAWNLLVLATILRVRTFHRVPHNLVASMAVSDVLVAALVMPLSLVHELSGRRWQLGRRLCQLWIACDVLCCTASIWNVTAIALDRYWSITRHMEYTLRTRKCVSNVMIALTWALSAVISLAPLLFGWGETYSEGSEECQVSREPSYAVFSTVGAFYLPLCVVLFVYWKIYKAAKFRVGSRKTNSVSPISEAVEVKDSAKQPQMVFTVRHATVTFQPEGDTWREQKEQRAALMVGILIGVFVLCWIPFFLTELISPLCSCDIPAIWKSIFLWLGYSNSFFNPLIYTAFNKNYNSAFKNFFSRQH

SERT = target: T8, SERT (Homo sapiens, UniProt P31645); experiment: PDSP receptor binding, SERT
T8 construct: purchased NIMH PDSP (Psychoactive Drug Screening Program, Roth lab, Case Western Reserve)

α2A = target: T9, α2A (Homo sapiens, UniProt P08913); experiment: PDSP receptor binding, α2A
T9 construct: purchased NIMH PDSP (Psychoactive Drug Screening Program, Roth lab, Case Western Reserve)

H2 = target: T10, H2 (Homo sapiens, UniProt P25021); experiment: PDSP receptor binding, H2
T10 construct: purchased NIMH PDSP (Psychoactive Drug Screening Program, Roth lab, Case Western Reserve)
T10 sequence (P25021 whole entry): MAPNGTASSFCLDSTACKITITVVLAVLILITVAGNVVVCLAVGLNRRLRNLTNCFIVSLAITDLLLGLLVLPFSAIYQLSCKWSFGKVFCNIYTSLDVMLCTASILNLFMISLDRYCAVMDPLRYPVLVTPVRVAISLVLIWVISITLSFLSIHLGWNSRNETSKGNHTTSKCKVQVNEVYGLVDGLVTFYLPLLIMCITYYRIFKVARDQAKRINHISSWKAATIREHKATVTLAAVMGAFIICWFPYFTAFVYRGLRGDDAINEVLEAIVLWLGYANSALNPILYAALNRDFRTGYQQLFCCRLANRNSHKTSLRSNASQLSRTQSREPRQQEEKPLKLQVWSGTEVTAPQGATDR

CB1 = target: T11, CB1 (Homo sapiens, UniProt P21554); experiment: PDSP receptor binding, CB1
T11 construct: purchased NIMH PDSP (Psychoactive Drug Screening Program, Roth lab, Case Western Reserve)
T11 sequence (P21554 whole entry): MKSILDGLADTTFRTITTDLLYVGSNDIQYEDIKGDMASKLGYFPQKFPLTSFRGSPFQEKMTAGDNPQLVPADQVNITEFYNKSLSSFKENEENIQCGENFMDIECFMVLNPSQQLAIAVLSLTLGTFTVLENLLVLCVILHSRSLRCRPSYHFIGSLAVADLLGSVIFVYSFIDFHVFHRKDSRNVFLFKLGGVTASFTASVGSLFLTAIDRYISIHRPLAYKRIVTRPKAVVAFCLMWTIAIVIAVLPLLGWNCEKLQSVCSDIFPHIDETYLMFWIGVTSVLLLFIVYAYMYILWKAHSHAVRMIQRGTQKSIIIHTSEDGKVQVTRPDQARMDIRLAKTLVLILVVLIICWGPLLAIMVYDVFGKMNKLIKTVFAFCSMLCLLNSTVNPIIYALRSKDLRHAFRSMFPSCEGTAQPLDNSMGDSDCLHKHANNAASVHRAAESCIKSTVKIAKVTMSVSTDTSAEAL

M3 = target: T12, M3 (Homo sapiens, UniProt P20309); experiment: PDSP receptor binding, M3
T12 construct: purchased NIMH PDSP (Psychoactive Drug Screening Program, Roth lab, Case Western Reserve)

D4 = target: T13, D4 (Homo sapiens, UniProt P21917); experiment: PDSP receptor binding, D4
T13 construct: purchased NIMH PDSP (Psychoactive Drug Screening Program, Roth lab, Case Western Reserve)

5ht7 = target: T14, 5ht7 (Homo sapiens, UniProt P34969); experiment: PDSP receptor binding, 5ht7
T14 construct: purchased NIMH PDSP (Psychoactive Drug Screening Program, Roth lab, Case Western Reserve)

D2 = target: T15, D2 (Homo sapiens, UniProt P14416); experiment: PDSP receptor binding, D2
T15 construct: purchased NIMH PDSP (Psychoactive Drug Screening Program, Roth lab, Case Western Reserve)

Imidaz oline = experiment: PDSP receptor binding, Imidazoline
σ2 = experiment: PDSP receptor binding, σ2
σ1 = target: T16, σ1 (Homo sapiens, UniProt Q99720); experiment: PDSP receptor binding, σ1
T16 construct: purchased NIMH PDSP (Psychoactive Drug Screening Program, Roth lab, Case Western Reserve)

D5 = target: T17, D5 (Homo sapiens, UniProt P21918); experiment: PDSP receptor binding, D5
T17 construct: purchased NIMH PDSP (Psychoactive Drug Screening Program, Roth lab, Case Western Reserve)
T17 sequence (P21918 whole entry): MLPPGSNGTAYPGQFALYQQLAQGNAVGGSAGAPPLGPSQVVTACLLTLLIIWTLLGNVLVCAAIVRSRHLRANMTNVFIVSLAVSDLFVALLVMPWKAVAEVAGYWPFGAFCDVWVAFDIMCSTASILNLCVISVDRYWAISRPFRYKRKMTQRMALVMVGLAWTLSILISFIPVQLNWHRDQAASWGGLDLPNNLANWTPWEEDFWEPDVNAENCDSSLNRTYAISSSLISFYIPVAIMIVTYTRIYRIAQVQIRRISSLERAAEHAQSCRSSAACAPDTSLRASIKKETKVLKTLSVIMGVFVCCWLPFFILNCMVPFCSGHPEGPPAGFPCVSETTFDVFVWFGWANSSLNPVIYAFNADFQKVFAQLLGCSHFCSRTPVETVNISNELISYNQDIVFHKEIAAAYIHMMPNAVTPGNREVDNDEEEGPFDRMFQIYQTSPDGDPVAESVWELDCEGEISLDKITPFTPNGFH

5ht2b = target: T18, 5ht2b (Homo sapiens, UniProt P41595); experiment: PDSP receptor binding, 5ht2b
T18 construct: purchased NIMH PDSP (Psychoactive Drug Screening Program, Roth lab, Case Western Reserve)

D3 = target: T19, D3 (Homo sapiens, UniProt P35462); experiment: PDSP receptor binding, D3
T19 construct: purchased NIMH PDSP (Psychoactive Drug Screening Program, Roth lab, Case Western Reserve)
T19 sequence (P35462 whole entry): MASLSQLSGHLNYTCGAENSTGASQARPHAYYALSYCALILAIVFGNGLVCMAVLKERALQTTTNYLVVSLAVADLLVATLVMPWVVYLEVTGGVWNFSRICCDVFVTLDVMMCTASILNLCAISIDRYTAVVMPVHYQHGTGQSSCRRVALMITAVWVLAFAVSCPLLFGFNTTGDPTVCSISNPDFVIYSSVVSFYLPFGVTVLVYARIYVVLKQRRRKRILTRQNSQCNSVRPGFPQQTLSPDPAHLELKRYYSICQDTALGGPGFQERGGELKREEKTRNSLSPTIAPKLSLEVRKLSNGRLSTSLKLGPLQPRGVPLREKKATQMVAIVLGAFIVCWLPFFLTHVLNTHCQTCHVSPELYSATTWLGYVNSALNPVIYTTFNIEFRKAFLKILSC

H1 = target: T20, H1 (Homo sapiens, UniProt P35367); experiment: PDSP receptor binding, H1
T20 construct: purchased NIMH PDSP (Psychoactive Drug Screening Program, Roth lab, Case Western Reserve)

MDR = experiment: PDSP receptor binding, MDR
MOR = target: T21, MOR (Homo sapiens, UniProt P35372); experiment: PDSP receptor binding, MOR
T21 construct: purchased NIMH PDSP (Psychoactive Drug Screening Program, Roth lab, Case Western Reserve)
T21 sequence (P35372 whole entry): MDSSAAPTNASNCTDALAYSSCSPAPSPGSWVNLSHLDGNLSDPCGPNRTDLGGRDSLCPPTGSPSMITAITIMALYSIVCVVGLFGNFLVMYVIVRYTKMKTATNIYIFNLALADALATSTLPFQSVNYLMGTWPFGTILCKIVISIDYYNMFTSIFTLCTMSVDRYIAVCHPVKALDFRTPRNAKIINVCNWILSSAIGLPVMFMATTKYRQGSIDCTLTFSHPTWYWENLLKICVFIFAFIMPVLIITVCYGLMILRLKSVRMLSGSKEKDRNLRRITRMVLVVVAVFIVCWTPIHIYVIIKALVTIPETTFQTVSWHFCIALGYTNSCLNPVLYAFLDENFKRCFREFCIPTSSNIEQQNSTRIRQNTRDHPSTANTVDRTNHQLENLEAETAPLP

Beta2 = target: T22, Beta2 (Homo sapiens, UniProt P07550); experiment: PDSP receptor binding, Beta2
T22 construct: purchased NIMH PDSP (Psychoactive Drug Screening Program, Roth lab, Case Western Reserve)

M4 = target: T23, M4 (Homo sapiens, UniProt P08173); experiment: PDSP receptor binding, M4
T23 construct: purchased NIMH PDSP (Psychoactive Drug Screening Program, Roth lab, Case Western Reserve)

T1 sequence (P08172 whole entry): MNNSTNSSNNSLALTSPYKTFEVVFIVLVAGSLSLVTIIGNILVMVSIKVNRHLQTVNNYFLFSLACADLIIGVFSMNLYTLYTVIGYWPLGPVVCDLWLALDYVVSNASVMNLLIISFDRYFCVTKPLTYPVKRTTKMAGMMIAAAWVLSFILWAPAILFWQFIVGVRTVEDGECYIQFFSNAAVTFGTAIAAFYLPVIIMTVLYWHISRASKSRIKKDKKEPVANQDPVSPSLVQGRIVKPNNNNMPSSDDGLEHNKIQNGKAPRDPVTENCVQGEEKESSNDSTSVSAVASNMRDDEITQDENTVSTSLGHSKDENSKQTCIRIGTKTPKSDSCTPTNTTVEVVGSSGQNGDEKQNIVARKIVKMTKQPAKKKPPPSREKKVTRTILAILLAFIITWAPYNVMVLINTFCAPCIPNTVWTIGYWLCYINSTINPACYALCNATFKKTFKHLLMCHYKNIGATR
T2 sequence (P46098 24-478): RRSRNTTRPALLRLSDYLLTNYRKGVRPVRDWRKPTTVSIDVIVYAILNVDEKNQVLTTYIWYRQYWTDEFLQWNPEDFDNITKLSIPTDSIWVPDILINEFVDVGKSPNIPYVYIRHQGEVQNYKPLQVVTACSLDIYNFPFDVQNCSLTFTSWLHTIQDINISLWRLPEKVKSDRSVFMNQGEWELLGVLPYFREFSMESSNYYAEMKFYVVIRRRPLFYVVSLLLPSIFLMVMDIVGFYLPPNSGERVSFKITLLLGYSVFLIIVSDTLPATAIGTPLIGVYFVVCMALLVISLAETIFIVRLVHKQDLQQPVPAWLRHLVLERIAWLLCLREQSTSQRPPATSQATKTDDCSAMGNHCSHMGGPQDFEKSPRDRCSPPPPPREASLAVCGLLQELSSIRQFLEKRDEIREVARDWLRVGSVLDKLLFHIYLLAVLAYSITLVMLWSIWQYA

CCc1ccc2c(c1)C(=O)N(C)Cc1c(C(=O)OCCCOC(=O)c3ncn4c3CN(C)C(=O)c3cc(CC)ccc3-4)ncn1-2 [XLi-356 (10), 1,3-Bis(8-ethyl-5,6-dihydro-5-methyl-6-oxo-4H-imidazo[1,5a][1,4]benzodiazepine-3-carboxy) propyl diester]
M2 binding (M2): ∗ (“∗” indicates “primary missed” (<50% inhibition at 10 µM)) | 5ht3 binding (5ht3): ∗ (“∗” indicates “primary missed” (<50% inhibition at 10 µM)) | H3 binding (H3): ∗ (“∗” indicates “primary missed” (<50% inhibition at 10 µM)) | DAT binding (DAT): ∗ (“∗” indicates “primary missed” (<50% inhibition at 10 µM)) | β1B binding [1]: ∗ (“∗” indicates “primary missed” (<50% inhibition at 10 µM)) | Beta1 binding (Beta1): ∗ (“∗” indicates “primary missed” (<50% inhibition at 10 µM)) | D1 binding (D1): ∗ (“∗” indicates “primary missed” (<50% inhibition at 10 µM)) | 5ht5a binding (5ht5a): ∗ (“∗” indicates “primary missed” (<50% inhibition at 10 µM)) | SERT binding (SERT): ∗ (“∗” indicates “primary missed” (<50% inhibition at 10 µM)) | α2A binding (α2A): ∗ (“∗” indicates “primary missed” (<50% inhibition at 10 µM)) | H2 binding (H2): ∗ (“∗” indicates “primary missed” (<50% inhibition at 10 µM)) | CB1 binding (CB1): ∗ (“∗” indicates “primary missed” (<50% inhibition at 10 µM)) | M3 binding (M3): ∗ (“∗” indicates “primary missed” (<50% inhibition at 10 µM)) | D4 binding (D4): ∗ (“∗” indicates “primary missed” (<50% inhibition at 10 µM)) | 5ht7 binding (5ht7): ∗ (“∗” indicates “primary missed” (<50% inhibition at 10 µM)) | D2 binding (D2): ∗ (“∗” indicates “primary missed” (<50% inhibition at 10 µM)) | Imidaz oline binding (Imidaz oline): ∗ (“∗” indicates “primary missed” (<50% inhibition at 10 µM)) | σ2 binding (σ2): ∗ (“∗” indicates “primary missed” (<50% inhibition at 10 µM)) | σ1 binding (σ1): ∗ (“∗” indicates “primary missed” (<50% inhibition at 10 µM)) | D5 binding (D5): ∗ (“∗” indicates “primary missed” (<50% inhibition at 10 µM)) | 5ht2b binding (5ht2b): ∗ (“∗” indicates “primary missed” (<50% inhibition at 10 µM)) | D3 binding (D3): ∗ (“∗” indicates “primary missed” (<50% inhibition at 10 µM)) | H1 binding (H1): ∗ (“∗” indicates “primary missed” (<50% inhibition at 10 µM)) | MDR binding (MDR): ∗ (“∗” indicates “primary missed” (<50% inhibition at 10 µM)) | MOR binding (MOR): ∗ (“∗” indicates “primary missed” (<50% inhibition at 10 µM)) | Beta2 binding (Beta2): ∗ (“∗” indicates “primary missed” (<50% inhibition at 10 µM)) | M4 binding (M4): ∗ (“∗” indicates “primary missed” (<50% inhibition at 10 µM))
